# In patent publication US12708116B2, “Herbicidal compositions comprising 2,4-D” (BASF SE, priority 2023, dated 2026):
# Columns and labels:
# Assay in all cases: Post-emergence application in field trials
# GLXMA = assay type: in vivo, Glycine max; settings: Example 4; 21 DAT; g ai/ha A-1 12.5, B-5 1066; growth stage 13; height 5-8 cm
# AMARE = assay type: in vivo, Amaranthus retroflexus; settings: 8 DAT; g ai/ha A-1 25, B-5 1066; growth stage 19; height 10-20 cm; water volume 140 l/ha
# AMATU = assay type: in vivo, Amaranthus tuberculatos; settings: 8 DAT; g ai/ha A-1 12.5, B-5 1066; growth stage 19; height 10-20 cm; water volume 140 l/ha
# PORPI = assay type: in vivo; settings: 8 DAT; g ai/ha A-1 25, B-5 1066; height 2-8 cm; water volume 140 l/ha
# SETVE = settings: growth stage 21-23
# AMAPA = test system: AMAPA
# HORVW = settings: growth stage 23-29, height 20-25 cm
# ZEAMX = settings: growth stage 15-16
# DIGSA = test system: DIGSA
# SETVI = assay type: in vivo, Setaria viridis; settings: 15 DAT; g ai/ha A-1 12.5, B-5 1066, C-10 840; growth stage 13-19; height 2-18 cm; water volume 140 l/ha
# ECHCG = assay type: in vivo, Echinochloa crus-galli
# DATST = test system: DATST
# CYPES = settings: 21 DAT, water volume 140 l/ha
structure (smiles),measurement,setting,value
"C[N+](C)(C)CCO.O=C([O-])COc1ccc(Cl)cc1Cl [B-5, 2,4-D choline]",% Herbicidal activity,GLXMA,55%
same,% Herbicidal activity,AMARE,83%
same,% Herbicidal activity,AMATU,83%
same,% Herbicidal activity,PORPI,50%
same,% Herbicidal activity,"SETVE; Example 4, 21 DAT, g ai/ha A-1 12.5, B-5 1066, height 8-16 cm",25%
same,% Herbicidal activity,"SETVE; Example 6, 7 DAT, g ai/ha A-1 12.5, B-5 1066, C-11 400, height 10-15 cm",15%
same,% Herbicidal activity,"SETVE; Example 6, 21 DAT, g ai/ha A-1 12.5, B-5 1066, C-11 400, height 10-15 cm",0%
same,% Herbicidal activity,"AMAPA; 13 DAT, g ai/ha A-1 25, B-5 1066, growth stage 16, height 15-25 cm, water volume 187 l/ha",53%
same,% Herbicidal activity,"AMAPA; 14 DAT, g ai/ha A-1 12.5, B-5 1066, C-10 840, growth stage 12-24, height 5-30 cm, water volume 140 l/ha",66%
same,% Herbicidal activity,"AMAPA; 14 DAT, g ai/ha A-1 25, B-5 1066, C-10 840, growth stage 12-24, height 5-30 cm, water volume 140 l/ha",66%
same,% Herbicidal activity,"AMAPA; 19 DAT, g ai/ha A-1 12.5, B-5 1066, growth stage 16, height 15-25 cm, water volume 187 l/ha",55%
same,% Herbicidal activity,"AMAPA; 19 DAT, g ai/ha A-1 25, B-5 1066, growth stage 16, height 15-25 cm, water volume 187 l/ha",55%
same,% Herbicidal activity,"AMAPA; 19 DAT, g ai/ha A-1 50, B-5 1066, growth stage 16, height 15-25 cm, water volume 187 l/ha",55%
same,% Herbicidal activity,"AMAPA; 21 DAT, g ai/ha A-1 12.5, B-5 1066, growth stage 12-28, height 7-20 cm, water volume 140 l/ha",63%
same,% Herbicidal activity,"AMAPA; 21 DAT, g ai/ha A-1 50, B-5 1066, height 5-23 cm, water volume 140 l/ha",78%
same,% Herbicidal activity,"HORVW; Example 4, 21 DAT, g ai/ha A-1 12.5, B-5 1066",0%
same,% Herbicidal activity,"HORVW; Example 6, 28 DAT, g ai/ha A-1 12.5, B-5 1066, C-11 400",0%
same,% Herbicidal activity,"HORVW; Example 8, 21 DAT, g ai/ha A-1 12.5, B-5 1066, C-12 252",0%
same,% Herbicidal activity,"HORVW; Example 10, 21 DAT, g ai/ha A-1 12.5, B-5 1066, C-4 12.5",0%
same,% Herbicidal activity,"ZEAMX; Example 4, 7 DAT, g ai/ha A-1 18, B-5 1066, height 50-60 cm",7%
same,% Herbicidal activity,"ZEAMX; Example 4, 21 DAT, g ai/ha A-1 12.5, B-5 1066, height 50-60 cm",10%
same,% Herbicidal activity,"ZEAMX; Example 6, 7 DAT, g ai/ha A-1 12.5, B-5 1066, C-11 400, height 25-30 cm",0%
same,% Herbicidal activity,"ZEAMX; Example 6, 28 DAT, g ai/ha A-1 12.5, B-5 1066, C-11 400, height 50-60 cm",0%
same,% Herbicidal activity,"ZEAMX; Example 8, 28 DAT, g ai/ha A-1 12.5, B-5 1066, C-12 252, height 50-60 cm",0%
same,% Herbicidal activity,"DIGSA; 14 DAT, g ai/ha A-1 12.5, B-5 1066, height 2-8 cm, water volume 140 l/ha",0%
same,% Herbicidal activity,"DIGSA; 14 DAT, g ai/ha A-1 25, B-5 1066, height 2-8 cm, water volume 140 l/ha",0%
same,% Herbicidal activity,"DIGSA; 14 DAT, g ai/ha A-1 50, B-5 1066, height 2-8 cm, water volume 140 l/ha",0%
same,% Herbicidal activity,"DIGSA; 15 DAT, g ai/ha A-1 12.5, B-5 1066, C-10 840, growth stage 13-19, height 2-13 cm, water volume 140 l/ha",27%
same,% Herbicidal activity,"DIGSA; 21 DAT, g ai/ha A-1 12.5, B-5 1066, C-11 655, height 2-8 cm, water volume 140 l/ha",0%
same,% Herbicidal activity,"DIGSA; 21 DAT, g ai/ha A-1 12.5, B-5 1066, height 2-8 cm, water volume 140 l/ha",0%
same,% Herbicidal activity,"DIGSA; 21 DAT, g ai/ha A-1 25, B-5 1066, C-11 655, height 2-8 cm, water volume 140 l/ha",0%
same,% Herbicidal activity,"DIGSA; 21 DAT, g ai/ha A-1 25, B-5 1066, height 2-8 cm, water volume 140 l/ha",0%
same,% Herbicidal activity,"DIGSA; 21 DAT, g ai/ha A-1 50, B-5 1066, C-11 655, height 2-8 cm, water volume 140 l/ha",0%
same,% Herbicidal activity,"DIGSA; 21 DAT, g ai/ha A-1 50, B-5 1066, height 2-8 cm, water volume 140 l/ha",0%
same,% Herbicidal activity,"DIGSA; Example 6, 7 DAT, g ai/ha A-1 12.5, B-5 1066, C-11 400, growth stage 21-22, height 15-20 cm",20%
same,% Herbicidal activity,"DIGSA; Example 6, 21 DAT, g ai/ha A-1 12.5, B-5 1066, C-11 400, growth stage 21-22, height 15-20 cm",20%
same,% Herbicidal activity,SETVI,27%
same,% Herbicidal activity,"ECHCG; 13 DAT, g ai/ha A-1 12.5, B-5 1066, C-10 840, growth stage 21-26, height 15-30 cm, water volume 187 l/ha",0%
same,% Herbicidal activity,"ECHCG; 13 DAT, g ai/ha A-1 25, B-5 1066, C-10 840, growth stage 21-26, height 15-30 cm, water volume 187 l/ha",0%
same,% Herbicidal activity,"ECHCG; 13 DAT, g ai/ha A-1 50, B-5 1066, C-10 840, growth stage 21-26, height 15-30 cm, water volume 187 l/ha",0%
same,% Herbicidal activity,"ECHCG; Example 4, 21 DAT, g ai/ha A-1 12.5, B-5 1066, growth stage 23-30, height 15-20 cm",0%
same,% Herbicidal activity,"ECHCG; Example 6, 7 DAT, g ai/ha A-1 12.5, B-5 1066, C-11 400, growth stage 23-30, height 15-20 cm",0%
same,% Herbicidal activity,"ECHCG; Example 6, 28 DAT, g ai/ha A-1 12.5, B-5 1066, C-11 400, growth stage 23-30, height 15-20 cm",0%
same,% Herbicidal activity,"ECHCG; Example 8, 7 DAT, g ai/ha A-1 12.5, B-5 1066, C-12 252, growth stage 23-30, height 15-20 cm",0%
same,% Herbicidal activity,"ECHCG; Example 8, 21 DAT, g ai/ha A-1 12.5, B-5 1066, C-12 252, growth stage 23-30, height 15-20 cm",0%
same,% Herbicidal activity,"ECHCG; Example 8, 28 DAT, g ai/ha A-1 12.5, B-5 1066, C-12 252, growth stage 23-30, height 15-20 cm",0%
same,% Herbicidal activity,"ECHCG; Example 10, 21 DAT, g ai/ha A-1 12.5, B-5 1066, C-4 12.5, growth stage 23-30, height 15-20 cm",0%
same,% Herbicidal activity,"DATST; Example 4, 7 DAT, g ai/ha A-1 12.5, B-5 1066",35%
same,% Herbicidal activity,"DATST; Example 6, 21 DAT, g ai/ha A-1 12.5, B-5 1066, C-11 400",40%
same,% Herbicidal activity,"CYPES; g ai/ha A-1 12.5, B-5 1066, C-11 655",0%
same,% Herbicidal activity,"CYPES; g ai/ha A-1 50, B-5 1066, C-11 655",0%
same,% Herbicidal activity,"CYPES; g ai/ha A-1 50, B-5 1066",0%
